This passage reports IC50 results from US10377770B2 (Novartis AG, priority 2015, dated 2019).

The target of this experiment is C-Raf FL (full length CRAF with Y340E and Y341E activating mutations, co-expressed with h14-3-3 zeta) (Homo sapiens (Human), UniProt P04049, Y340E/Y341E). Put plainly: In vitro Raf activity determination, AlphaScreen p-MEK readout, c-Raf (C-Raf FL). The following applies: c-Raf approximately 4 nM, ATP 1 μM, pre-incubation 60 minutes, reaction 1 hour. Format: biochemical. An outline of the steps:
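Full-length C-Raf (~4 nM) pre-incubated 60 min at room temperature with compound and kinase-dead biotinylated MEK1 (~10 nM) in Tris pH 7.5, 15 mM MgCl2, BSA, DTT. Reaction started with 1 μM ATP and run 1 h at room temperature. Phospho-MEK detected by AlphaScreen with anti-p-MEK antibody.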
Background: Bead proximity is the source of the signal in Alpha formats.

C-Raf FL (full length CRAF with Y340E and Y341E activating mutations, co-expressed with h14-3-3 zeta), sequence (P04049 whole entry Y340E/Y341E): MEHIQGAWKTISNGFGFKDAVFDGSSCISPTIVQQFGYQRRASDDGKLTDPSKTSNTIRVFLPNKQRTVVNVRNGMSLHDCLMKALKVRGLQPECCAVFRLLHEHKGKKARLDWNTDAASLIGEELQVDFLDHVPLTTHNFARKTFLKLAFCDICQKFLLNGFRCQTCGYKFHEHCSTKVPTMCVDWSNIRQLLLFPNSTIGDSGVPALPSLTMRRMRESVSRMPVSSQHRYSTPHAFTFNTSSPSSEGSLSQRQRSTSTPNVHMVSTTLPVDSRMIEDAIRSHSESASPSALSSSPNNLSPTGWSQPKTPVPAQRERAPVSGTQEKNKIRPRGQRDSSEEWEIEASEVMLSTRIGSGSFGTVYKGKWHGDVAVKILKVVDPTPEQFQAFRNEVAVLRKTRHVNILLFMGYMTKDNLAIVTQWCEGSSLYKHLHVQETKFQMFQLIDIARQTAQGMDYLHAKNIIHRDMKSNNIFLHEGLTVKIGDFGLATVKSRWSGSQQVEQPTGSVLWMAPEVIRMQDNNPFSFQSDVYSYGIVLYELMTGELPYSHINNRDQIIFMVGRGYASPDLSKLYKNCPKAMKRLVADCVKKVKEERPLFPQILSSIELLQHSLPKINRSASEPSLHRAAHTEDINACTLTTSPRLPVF
C-Raf FL (full length CRAF with Y340E and Y341E activating mutations, co-expressed with h14-3-3 zeta), sequence (P63104 whole entry partner): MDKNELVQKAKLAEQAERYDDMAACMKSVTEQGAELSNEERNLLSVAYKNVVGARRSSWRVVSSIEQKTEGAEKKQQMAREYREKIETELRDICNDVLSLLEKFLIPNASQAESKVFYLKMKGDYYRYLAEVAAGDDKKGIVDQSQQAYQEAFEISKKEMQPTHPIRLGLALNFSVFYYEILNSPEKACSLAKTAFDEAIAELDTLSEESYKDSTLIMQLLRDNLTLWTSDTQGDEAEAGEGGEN

Consider `Cc1ccc(NC(=O)c2ccnc(C(F)(F)F)c2)cc1-c1ccc2c(c1)N1CCOC[C@H]1[C@](F)(CF)C2` [Example 472, N-(3-((4aS,5S)-5-fluoro-5-(fluoromethyl)-1,2,4,4a,5,6-hexahydro-[1,4]oxazino[4,3-a]quinolin-9-yl)-4-methylphenyl)-2-(trifluoromethyl)iso-nicotinamide], for which the IC50 (as a rule, the concentration at which inhibition is half-maximal) was determined as 2 nM.
Molecule `CCN1Cc2nncn2-c2cc(-c3cc(NC(=O)c4ccnc(C(F)(F)F)c4)ccc3C)cnc2C1=O` [Example 241, N-(3-(5-ethyl-6-oxo-5,6-dihydro-4H-pyrido[2,3-f][1,2,4]-triazolo[4,3-a][1,4]diazepin-9-yl)-4-methylphenyl)-2-(trifluoromethyl) isonicotinamide] yielded an IC50 of 9.5 nM.
As to `Cc1ccc(NC(=O)c2ccnc(C(F)(F)F)c2)cc1-c1cnc2c(c1)N1CCOCC1C(F)(F)C2O` (racemic) [Example 166, rac-cis-N-(3-(5,5-difluoro-6-hydroxy-1′2′4′4a′5′6-hexahydro-[1,4]oxazino[4,3-a][1,5]naphthyridin-9-yl)-4-methylphenyl)-2-(trifluoromethyl)isonicotinamide], the IC50 was 0.011 nM. Compared with the last molecule, the IC50 is about 860-fold lower.
In turn, `CCNC(=O)C1Cc2ccc(-c3cc(NC(=O)c4cccc(C(F)(F)F)c4)cnc3C)cc2N2CCOCC12` (racemic) [Example 75, (rac)-N-ethyl-9-(2-methyl-5-(3-(trifluoromethyl)benzamido)pyridin-3-yl)-1,2,4,4a,5,6-hexahydro-[1,4]oxazino[4,3-a]quinoline-5-carboxamide] came in with an IC50 of 0.48 nM.
`CCN1C(=O)CC2COCCN2c2cc(-c3cc(NC(=O)c4cccc(C(F)(F)F)c4)cnc3C)cnc21` (racemic) [Example 131, rac-N-(5-(7-Ethyl-6-oxo-1,2,4a,5,6,7-hexahydro-4H-[1,4]oxazino[4,3-d]pyrido[2,3-b][1,4]diazepin-10-yl)-6-methylpyridin-3-yl)-3-(trifluoromethyl)benzamide] registered an IC50 of 0.06 nM. This IC50 is about 8-fold lower than that of the molecule before.
Regarding `CCN1C[C@@H]2COCC[C@H]2c2cc(-c3cc(NC(=O)c4ccnc(C(F)(F)F)c4F)ccc3C)cnc21` [Example 293, N-(3-((4aR, 10bR)-6-ethyl-2,4,4a,5,6,10b-hexahydro-1H-pyrano[3,4-c][1,8]naphthyridin-9-yl)-4-methylphenyl)-3-fluoro-2-(trifluoromethyl) isonicotinamide], the IC50 is 0.1 nM.
For the molecule `CCN1C(=O)[C@@H]2COCC[C@H]2c2cc(-c3cc(NC(=O)c4ccnc(C(C)(C)F)c4)cnc3C)cnc21` [Example 313, N-(5-((4aS, 10bR)-6-ethyl-5-oxo-1,4,4a,5,6,10b-hexahydro-2H-pyrano[3,4-c][1,8]naphthyridin-9-yl)-6-methylpyridin-3-yl)-2-(2-fluoropropan-2-yl)isonicotinamide], the IC50 is 0.5 nM. Against the preceding molecule, the IC50 is about 5-fold higher.
Molecule `Cc1ccc(NC(=O)c2ccnc(C(C)(F)F)c2)cc1-c1cc2c(nn1)[C@H](O)C[C@@H]1COCCN21` (racemic) [Example 46, (rac)(trans)-2-(1,1-difluoroethyl)-N-(3-(5-hydroxy-5,6,6a,7,9,10-hexahydropyridazino[3′,4′:5,6]pyrido[2,1-c][1,4]oxazin-2-yl)-4-methylphenyl)isonicotinamide] displayed an IC50 of 0.014 nM.
For the molecule `Cc1ccc(NC(=O)c2ccnc(C(F)(F)F)c2)cc1-c1ccc2c(c1)N1CCOCC[C@H]1C(F)(F)[C@H]2O` [Example 528], 0.7 nM corresponded to half-maximal inhibition (IC50). Compared with the last molecule, the IC50 is about 50-fold higher.
`Cc1ncc(NC(=O)c2cccc(C(F)(F)F)c2)cc1-c1cnc2c(c1)[C@@H]1CCOC[C@H]1C(=O)N2CCO` [Example 259, N-(5-((4aS, 10bR)-6-(2-hydroxyethyl)-5-oxo-2,4,4a,5,6,10b-hexahydro-1H-pyrano[3,4-c][1,8]naphthyridin-9-yl)-6-methylpyridin-3-yl)-3-(trifluoromethyl) benzamide] yielded an IC50 of 0.6 nM.
Turning to `Cc1ccc(NC(=O)c2ccnc(C(C)(C)C)c2)cc1-c1ccc2c(c1)N1CCOC[C@H]1[C@](F)(CF)C2` [Example 474, 2-(tert-butyl)-N-(3-((4aS,5S)-5-fluoro-5-(fluoromethyl)-1,2,4,4a,5,6-hexahydro-[1,4]oxazino[4,3-a]quinolin-9-yl)-4-methylphenyl)iso-nicotinamide], the IC50 was 5.5 nM.
Molecule `Cc1ccc(NC(=O)c2ccnc(C(C)(F)F)c2)cc1-c1cnc2c(c1)N1CCOC[C@H]1C(F)(F)[C@@H]2O` (racemic) [Example 163, rac-cis-N-(3-(5,5-difluoro-6-hydroxy-1,2,4,4a,5,6-hexahydro-[1,4]oxazino[4,3-a][1,5]naphthyridin-9-yl)-4-methylphenyl)-2-(1,1-difluoroethyl)isonicotinamide] yielded an IC50 of 0.02 nM. This IC50 lies about 280-fold lower than the previous one.
In turn, `Cc1ncc(NC(=O)c2ccnc(C(C)(F)F)c2)cc1-c1ccc2c(c1)N1CCOCC1CC2O` (racemic) [Example 11, (rac)-2-(1,1-difluoroethyl)-N-(5-(6-hydroxy-1,2,4,4a,5,6-hexahydro-[1,4]oxazino[4,3-a]quinolin-9-yl)-6-methylpyridin-3-yl)isonicotinamide] gave an IC50 of 0.0098 nM.
Take `Cc1ccc(NC(=O)c2ccnc(C(C)(F)F)c2)cc1-c1cnc2c(c1)N1CCOC[C@@H]1[C@@H](CO)C2` [Example 118, 2-(1,1-difluoroethyl)-N-(3-((4aS,5S)-5-(hydroxymethyl)-1,2,4,4a,5,6-hexahydro-[1,4]oxazino[4,3-a][1,5]naphthyridin-9-yl)-4-methylphenyl)isonicotinamide]: the IC50 came to 0.0046 nM.
Then `Cc1ccc(NC(=O)c2ccnc(C(F)(F)F)c2F)cc1-c1cnc2c(c1)[C@@H]1CCOC[C@H]1C(=O)N2CCO` [Example 307, 3-fluoro-N-(3 - ((4aS, 10bR)-6-(2-hydroxyethyl)-5-oxo-2,4,4a,5,6,10b-hexahydro-1H-pyrano[3,4-c][1,8]naphthyridin-9-yl)-4-methylphenyl)-2-(trifluoromethyl) isonicotinamide], with 0.1 nM.
`Cc1ccc(NC(=O)c2ccnc(C(F)(F)F)c2F)cc1-c1cc2n(c(=O)c1)CC[C@@H]1COCCN21` [Example 415, (R)-3-fluoro-N-(4-methyl-3-(8-oxo-1,2,4,4a,5,6-hexahydro-8H-pyrido[2′,1′:2,3]pyrimido[6,1-c][1,4]oxazin-10-yl)phenyl)-2-(trifluoromethyl)isonicotinamide] yielded an IC50 of 0.8 nM.
Then `Cc1ccc(NC(=O)c2ccnc(C(C)(C)C#N)c2)cc1-c1cnc2c(c1)N1CCOC[C@H]1C[C@H]2O` [Example 150, 2-(2-cyanopropan-2-yl)-N-(3-((4aR,6R)-6-hydroxy-1,2,4,4a,5,6-hexahydro-[1,4]oxazino[4,3-a][1,5]naphthyridin-9-yl)-4-methylphenyl)isonicotinamide], with 0.079 nM; and `Cc1ccc(NC(=O)c2ccnc(C(F)(F)F)c2)cc1-c1ccc2c(c1)N1CCOC[C@@H]1[C@](F)(CO)C2` [Example 399, N-(3-((4aR,5S)-5-fluoro-5-(hydroxymethyl)-1,2,4,4a,5,6-hexahydro-[1,4]oxazino[4,3-a]quinolin-9-yl)-4-methylphenyl)-2-(trifluoromethyl)isonicotinamide], with 0.3 nM.
`CCN1C(=O)[C@@H]2COCC[C@H]2c2cc(-c3cc(NC(=O)c4ccnc(C(F)(F)F)c4)cnc3C)cnc21` [Example 252, N-(5-((4aS, 10bR)-6-ethyl-5-oxo-2,4,4a,5,6,10b-hexahydro-1H-pyrano[3,4-c][1,8]naphthyridin-9-yl)-6-methylpyridin-3-yl)-2-(trifluoromethyl) isonicotinamide] registered an IC50 of 0.1 nM.
Then `Cc1ncc(NC(=O)c2ccnc(C(F)(F)F)c2)cc1-c1ccc2c(c1)N1CCOCC[C@H]1C[C@@H]2O` [Example 443, N-(5-((5aS,7S)-7-hydroxy-1,2,5,5a,6,7-hexahydro-4H-[1,4]oxazepino [4,5-a]quinolin-10-yl)-6-methylpyridin-3-yl)-2-(trifluoromethyl) isonicotinamide], with 0.6 nM; and `Cc1ncc(NC(=O)c2cccc(C(F)(F)F)c2)cc1-c1ccc2c(c1)N1CCOCC1C(CO)C2` (racemic) [Example 61, (rac)-N-(5-(5-(hydroxymethyl)-1,2,4,4a,5,6-hexahydro-[1,4]oxazino[4,3-a]quinolin-9-yl)-6-methylpyridin-3-yl)-3-(trifluoromethyl)benzamide], with 0.033 nM.
`Cc1ncc(NC(=O)c2ccnc(C(C)(C)F)c2)cc1-c1ccc2c(c1)N1CCOCC[C@H]1C[C@H]2O` [Example 444] registered an IC50 of 0.4 nM. This IC50 is about 12-fold higher than that of the molecule before.
Then `CCN1C[C@H]2COCCN2c2cc(-c3cc(NC(=O)c4ccnc(C(C)(F)F)c4)ccc3C)cnc2C1=O` [Example 498, (S)-2-(1,1-difluoroethyl)-N-(3-(6-ethyl-7-oxo-1,2,4a,5,6,7-hexahydro-4H-[1,4]oxazino[4,3-a]pyrido[2,3-f][1,4]diazepin-10-yl)-4-methylphenyl)iso-nicotinamide], with 0.6 nM.
The molecule `Cc1ncc(NC(=O)c2cncc(C(F)(F)F)c2)cc1-c1ccc2c(c1)N1CCOC[C@H]1[C@](F)(CF)C2` [Example 470, N-(5-((4aS,5S)-5-fluoro-5-(fluoromethyl)-1,2,4,4a,5,6-hexahydro-[1,4]oxazino[4,3-a]quinolin-9-yl)-6-methylpyridin-3-yl)-5-(trifluorometh-yl)nicotinamide] registered an IC50 of 2.2 nM.
Then `CCN1C[C@@H]2COCCN2c2cc(-c3cc(NC(=O)c4cccc(C(F)(F)F)c4)cnc3C)cnc2C1=O` [Example 501, (R)-N-(5-(6-ethyl-7-oxo-1,2,4a,5,6,7-hexahydro-4H-[1,4]oxazino[4,3-a]pyrido[2,3-f][1,4]diazepin-10-yl)-6-methypyridin-3-yl)-3-(trifluoro-methyl)benzamide], with 0.2 nM.
As for `Cc1ncc(NC(=O)c2ccnc(C(F)(F)F)c2)cc1-c1ccc2c(c1)N1CCOC[C@H]1[C@](F)(CF)C2` [Example 471, N-(5-((4aS,5S)-5-fluoro-5-(fluoromethyl)-1,2,4,4a,5,6-hexahydro-[1,4]oxazino[4,3-a]quinolin-9-yl)-6-methylpyridin-3-yl)-2-(trifluoromethyl)iso-nictonamide], half-maximal inhibition (IC50) was put at 1.2 nM. This IC50 is about 6-fold higher than that of the molecule before.
